Target: ERK2 enzyme (Homo sapiens (Human), UniProt P28482)
Assay: Inhibition assay of ERK (Z'-LYTE kinase assay, Ser/Thr 3 peptide substrate)
Type: biochemical
Details: 100 μM ATP
Method: The inhibition of ERK activity by the compounds disclosed herein was determined using the Z′-LYTE kinase assay kit (Life Technologies) with a Ser/Thr 3 peptide substrate (Life Technologies) according to manufacturers' instructions. […] The IC50 values for the compounds were determined with 3-fold serial dilutions in duplicate. […] The final DMSO concentration in the assay was 1%. Final reaction volume was 20 μL/well in 384-well plates. Kinase reactions were conducted or 1 hour followed by the assay development reaction (1 hour) in a 20 ul/well in a 384 well plate format.

[1] = In vitro, ERK2 enzyme 0.47 ng/μL

Chain of ERK2 enzyme (P28482 whole entry): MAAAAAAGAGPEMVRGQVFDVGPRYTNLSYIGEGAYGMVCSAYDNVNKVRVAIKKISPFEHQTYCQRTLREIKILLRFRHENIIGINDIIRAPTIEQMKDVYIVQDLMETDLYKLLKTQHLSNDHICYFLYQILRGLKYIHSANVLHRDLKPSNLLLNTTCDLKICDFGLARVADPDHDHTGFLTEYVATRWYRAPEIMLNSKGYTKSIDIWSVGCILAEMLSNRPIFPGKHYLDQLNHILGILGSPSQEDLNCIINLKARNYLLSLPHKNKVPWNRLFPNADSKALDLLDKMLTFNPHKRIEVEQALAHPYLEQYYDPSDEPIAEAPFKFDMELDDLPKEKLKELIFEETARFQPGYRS

Structure (SMILES)	IC50 (In vitro ERK2 enzyme) [nM]	IC50 [1] [nM]
O=C1Nc2cc3[nH]nc(-c4ccc(=O)[nH]c4)c3cc2CN1Cc1cccc(Cl)c1 [Compound 61]	< 50	
COc1ncc(-c2n[nH]c3cc4c(cc23)CN(CC2CCN(CC3CC3)CC2)C(=O)N4)cn1 [Compound 82]	250 to 1000	
O=C1Nc2cc3[nH]nc(-c4ccccn4)c3cc2CN1Cc1cccc(Cl)c1 [Compound 91]	50 to 250	
Cc1cc(-c2n[nH]c3cc4[nH]c(=O)n(Cc5ccc(F)c(Cl)c5)c(=O)c4cc23)ccn1 [Compound 15]	50 to 250	
Cc1cc(-c2n[nH]c3cc4c(cc23)CN(C2(c3ccc(F)cc3)CC2)C(=O)N4)ccn1 [Compound 17]	50 to 250	
Cc1cc(-c2n[nH]c3cc4c(cc23)CN([C@@H]2CCCN(C(C)c3ccc(F)cc3)C2)C(=O)N4)ccn1 (stereo partly shown) [Compound 179]	50 to 250	
Cc1cc(-c2n[nH]c3cc4c(cc23)CN([C@@H]2CCCN(Cc3cccnc3C(F)(F)F)C2)C(=O)N4)ccn1 [Compound 161]	< 50	
COc1ncc(-c2n[nH]c3cc4c(cc23)CN(Cc2cccc(Cl)c2)CC(=O)N4)cn1 [Compound 98]	> 1000	
Cc1cc(-c2n[nH]c3cc4c(cc23)CN(C2CN(Cc3ccccc3)CC(F)(F)C2)C(=O)N4)ccn1 (stereo not shown) [Compound 200]		< 50
Cc1cc(-c2n[nH]c3cc4c(cc23)CN(C2CN(CCc3ccccc3)C2)C(=O)N4)ccn1 [Compound 192]	50 to 250	
Cc1ncccc1-c1n[nH]c2cc3[nH]c(=O)c(C(C)c4ccccc4)cc3cc12 (stereo not shown) [Compound 335]		< 50
COc1cccc(F)c1CN1CCC[C@@H](N2Cc3cc4c(-c5ccnnc5)n[nH]c4cc3NC2=O)C1 [Compound 126]	< 50	
Cc1cc(-c2n[nH]c3cc4c(cc23)CN([C@@H]2CN(CC#N)C[C@H]2c2ccccc2)C(=O)N4)ccn1 (mixture of isomers) [Compound 366]		< 50
Cc1cc(-c2n[nH]c3cc4c(cc23)CN([C@@H]2CCCN(Cc3cnccc3C)C2)C(=O)N4)ccn1 [Compound 183]	50 to 250	
Cc1cc(-c2n[nH]c3cc4c(cc23)CN([C@@H]2CCN(C(C)C(F)(F)F)C2)C(=O)N4)ccn1 (stereo partly shown) [Compound 267]		< 50
Cc1cc(-c2n[nH]c3cc4c(cc23)CN([C@@H]2CCCN(Cc3sc(C)nc3C)C2)C(=O)N4)ccn1 [Compound 195]	50 to 250	
Cc1cc(-c2n[nH]c3cc4c(cc23)CN([C@H](C)c2ccc(Cl)cc2)C(=O)N4)ccn1 [Compound 16]	< 50	
Cc1cc(-c2n[nH]c3cc4c(cc23)CN([C@@H]2CCCN(CC3CC5CCC3C5)C2)C(=O)N4)ccn1 (stereo partly shown) [Compound 142]	< 50	
Cc1cc(-c2n[nH]c3cc4c(cc23)CN([C@H](C)c2ccccc2)C(=O)N4)cc(C)n1 [Compound 377]		< 50
Cc1cc(-c2n[nH]c3cc4c(cc23)CN([C@@H]2CCN(CC3CCCC3)C2)C(=O)N4)ccn1 [Compound 206]		250 to 1000
COc1ncc(-c2n[nH]c3cc4c(cc23)CN([C@H](C)c2ccc(Cl)cc2)C(=O)N4)cn1 [Compound 95]	< 50	
N#Cc1cccc(CN2Cc3cc4c(-c5ccnnc5)n[nH]c4cc3NC2=O)c1 [Compound 128]	< 50	
Cc1cc(-c2n[nH]c3cc4c(cc23)CN(CCNCc2ccccc2)C(=O)N4)ccn1 [Compound 149]	< 50	

Structure (SMILES)	IC50 (In vitro ERK2 enzyme) [nM]	IC50 [1] [nM]
Cc1cc(-c2n[nH]c3cc4c(cc23)CN([C@@H]2CCN(C)C2)C(=O)N4)ccn1 [Compound 255]		< 50
Cc1cc(-c2n[nH]c3cc4c(cc23)CN([C@@H]2CCN(c3cccc(Cl)c3)C2)C(=O)N4)ccn1 [Compound 249]		50 to 250
Cn1nccc1-c1n[nH]c2cc3c(cc12)CN([C@@H]1CN(CC(F)(F)F)C[C@H]1c1ccccc1)C(=O)N3 [Compound 350]		250 to 1000
Cc1ccc(CN2CCC[C@@H](N3Cc4cc5c(-c6ccnc(C)c6)n[nH]c5cc4NC3=O)C2)cn1 [Compound 131]	50 to 250	
Cc1cc(-c2n[nH]c3cc4c(cc23)CN([C@@H]2CCCN(CC(O)C(C)(C)C)C2)C(=O)N4)ccn1 (stereo partly shown) [Compound 236]		50 to 250
Cc1ncc(-c2n[nH]c3cc4c(cc23)CN(Cc2cccc(Cl)c2)C(=O)N4)cn1 [Compound 90]	< 50	
Cc1cc(-c2n[nH]c3cc4c(cc23)CN(Cc2ccccc2)C(=O)N4)cc(C)n1 [Compound 229]		< 50
Cc1cc(-c2n[nH]c3cc4c(cc23)CN([C@@H]2CN(C)C[C@H]2c2ccccc2)C(=O)N4)cc(C)n1 (racemic) [Compound 248]		< 50
Cc1cc(-c2n[nH]c3cc4[nH]c(=O)c(C(CO)c5ccccc5)cc4cc23)ccn1 (stereo not shown) [Compound 328]		< 50
O=C1Nc2cc3[nH]nc(Br)c3cc2CN1Cc1cccc(Cl)c1 [Compound 25]	250 to 1000	
Cc1cc(-c2n[nH]c3cc4c(cc23)CN([C@@H]2CCCN(CCC(F)(F)F)C2)C(=O)N4)ccn1 [Compound 178]	< 50	
Cc1cc(-c2n[nH]c3cc4[nH]c(=O)c(C(C)c5ccc(F)cc5F)cc4cc23)ccn1 (stereo not shown) [Compound 312]		50 to 250
Cc1cc(-c2n[nH]c3cc4c(cc23)CN(CCO)C(=O)N4)ccn1 [Compound 43]	< 50	
O=C1Nc2cc3[nH]nc(-c4ccnnc4)c3cc2CN1[C@H](CO)c1cccc(Cl)c1 [Compound 117]	< 50	
Cc1cc(-c2n[nH]c3cc4c(cc23)CN(Cc2ccc(F)c(F)c2)C(=O)N4)ccn1 [Compound 13]	< 50	
Cc1cc(-c2n[nH]c3cc4c(cc23)CN(CC2CC2)C(=O)N4)ccn1 [Compound 258]		< 50
Cc1cc(-c2n[nH]c3cc4c(cc23)CN(Cc2cc(F)cc(F)c2)C(=O)N4)ccn1 [Compound 7]	< 50	
Cc1cc(-c2n[nH]c3cc4c(cc23)CN([C@@H]2CCCN(CCC3CC3)C2)C(=O)N4)ccn1 [Compound 155]	< 50	
Cc1cc(-c2n[nH]c3cc4c(cc23)CN([C@@H]2CCN(c3ccc(F)cn3)C2)C(=O)N4)ccn1 [Compound 257]		50 to 250
Cn1nccc1-c1n[nH]c2cc3c(cc12)CN([C@@H]1CCCN(Cc2ccccc2)C1)C(=O)N3 [Compound 261]		< 50
Cc1cc(-c2n[nH]c3cc4c(cc23)CN(Cc2ccccc2C(F)(F)F)C(=O)N4)ccn1 [Compound 218]		< 50
Cc1cc(-c2n[nH]c3cc4c(cc23)CN(CCNCc2ccc(F)c(Cl)c2)C(=O)N4)ccn1 [Compound 173]	< 50	
O=C1Nc2cc3[nH]nc(Br)c3cc2CN1Cc1ccc(F)cc1 [Compound 29]	250 to 1000	

Next, values leading:

IC50 (In vitro ERK2 enzyme) [nM]	IC50 [1] [nM]	Structure (SMILES)
	< 50	Cc1cc(-c2n[nH]c3cc4c(cc23)CN([C@H]2CCN(Cc3ccccc3)C2)C(=O)N4)ccn1 [Compound 301]
< 50		Cc1cc(-c2n[nH]c3cc4c(cc23)CN([C@@H]2CCCN(C)C2)C(=O)N4)ccn1 [Compound 33]
	50 to 250	COc1ncc(-c2n[nH]c3cc4c(cc23)CN(C2CN(Cc3ccccc3)CC(F)(F)C2)C(=O)N4)cn1 (stereo not shown) [Compound 320]
	< 50	Cn1cc(-c2n[nH]c3cc4c(cc23)CN([C@@H]2CCCN(Cc3ccc(F)cc3F)C2)C(=O)N4)cn1 [Compound 281]
	< 50	CC(c1ccccc1)c1cc2cc3c(-c4ccnnc4)n[nH]c3cc2[nH]c1=O (stereo not shown) [Compound 323]
< 50		O=C1Nc2cc3[nH]nc(-c4ccncc4)c3cc2CN1Cc1cccc(Cl)c1 [Compound 3]
	< 50	COc1ncc(-c2n[nH]c3cc4c(cc23)CN([C@@H]2CCN(CC(F)(F)F)C2)C(=O)N4)cn1 [Compound 276]
< 50		Cc1cc(-c2n[nH]c3cc4c(cc23)CN(Cc2ccc(F)cc2)C(=O)N4)ccn1 [Compound 30]
50 to 250		Cc1cc(-c2n[nH]c3cc4c(cc23)CN([C@@H]2CCCN(CC3CCOCC3)C2)C(=O)N4)ccn1 [Compound 135]
250 to 1000		COc1ncc(-c2n[nH]c3cc4c(cc23)CN(CCc2cccc(Cl)c2)CC(=O)N4)cn1 [Compound 107]
	< 50	Cn1cc(-c2n[nH]c3cc4c(cc23)CN([C@@H]2CCN(CC(F)(F)F)C2)C(=O)N4)cn1 [Compound 259]
< 50		COc1cc(-c2n[nH]c3cc4c(cc23)CN(Cc2ccc(F)c(Cl)c2)C(=O)N4)ccn1 [Compound 38]
50 to 250		COc1ncc(-c2n[nH]c3cc4c(cc23)CCN(Cc2ccc(F)cc2)C(=O)N4)cn1 [Compound 130]
< 50		COc1ncc(-c2n[nH]c3cc4c(cc23)CN(CCCN)C(=O)N4)cn1 [Compound 112]
	50 to 250	Cc1cc(-c2n[nH]c3cc4[nH]c(=O)c([C@@H](C)c5ccc(F)cc5)cc4cc23)ccn1 [Compound 287]
	< 50	Cc1cc(-c2n[nH]c3cc4[nH]c(=O)c(CC5CCCCC5)cc4cc23)ccn1 [Compound 266]
	50 to 250	Cc1cc(-c2n[nH]c3cc4[nH]c(=O)c(C5CCCN(Cc6ccccc6)C5)cc4cc23)cc(C)n1 (stereo not shown) [Compound 360]
< 50		COc1cccc(F)c1CN1CCC[C@@H](N2Cc3cc4c(-c5ccnc(C)c5)n[nH]c4cc3NC2=O)C1 [Compound 144]
< 50		O=C1Nc2cc3[nH]nc(-c4ccnnc4)c3cc2CN1CCc1ccc(F)cc1 [Compound 110]
< 50		Cc1cc(-c2n[nH]c3cc4c(cc23)CN([C@@H]2CCCN(CC(F)(F)F)C2)C(=O)N4)ccn1 [Compound 193]
< 50		Cc1cc(-c2n[nH]c3cc4c(cc23)CN([C@@H]2CCCN(Cc3cc(C5CC5)on3)C2)C(=O)N4)ccn1 [Compound 188]
	< 50	Cc1cc(-c2n[nH]c3cc4c(cc23)CN([C@@H]2CN(CC(F)(F)F)C[C@H]2c2ccccc2)C(=O)N4)ccn1 [Compound 304]
50 to 250		Cc1cc(-c2n[nH]c3cc4c(cc23)CN([C@@H]2CCCN(CC3CCCC3)C2)C(=O)N4)ccn1 [Compound 138]
	< 50	Cc1cc(-c2n[nH]c3cc4c(cc23)CN([C@@H]2CCCN(C(C)C(F)(F)F)C2)C(=O)N4)ccn1 (stereo partly shown) [Compound 216]
